According to patent US12702691B2, “Extract of an herbal composition as antimicrobial and/or antibiofilm agent” (ALPHANOSOS S.A.S., priority 2016, dated 2026):

Legend:
[1] = tested on: B-A21; assay: Planktonic growth with extract and antibiotic relative to growth without both (Example 14); assay type: cell-based
Experimental: (§1) Starting from the herbal composition, the corresponding water extracts (or processed samples) was prepared according to the previously described Method B using 2.06 g of the above herbal composition with 40 mL water with 100 g/L sucrose for water extraction and including the decantation step before filtration. In an independent water extract preparation without sucrose, it has been measured that 2.06 g/40 mL of herbal composition corresponds to 14.5 g/L as deduced from the weight of the lyophilized dry herbal extract.
(§2) In Example 14 we calculate the growth of the bacteria in presence of antibiotic and/or herbal mix relative to the growth in the absence of both antibiotic and herbal mix extract.

[2] = tested on: B-A17; assay: as above; assay type: cell-based
Experimental: as §1, §2

[3] = M[20C]-576 0 μg/mL, antibiotic 3.91 μg/mL
[4] = M[20C]-576 0 μg/mL, antibiotic 7.81 μg/mL
[5] = M[20C]-576 0 μg/mL, antibiotic 15.63 μg/mL
[6] = M[20C]-576 0 μg/mL, antibiotic 31.25 μg/mL
[7] = M[20C]-576 0 μg/mL, antibiotic 62.50 μg/mL
[8] = M[20C]-576 0 μg/mL, antibiotic 125 μg/mL
[9] = M[20C]-576 0 μg/mL, antibiotic 250 μg/mL
[10] = M[20C]-576 0 μg/mL, antibiotic 500 μg/mL
[11] = M[20C]-576 0 μg/mL, antibiotic 1000 μg/mL
[12] = M[20C]-576 0 μg/mL, antibiotic 2000 μg/mL
[13] = M[20C]-576 0 μg/mL, antibiotic 4000 μg/mL
[14] = M[20C]-576 90.6 μg/mL, antibiotic 3.91 μg/mL
[15] = M[20C]-576 90.6 μg/mL, antibiotic 7.81 μg/mL
[16] = M[20C]-576 90.6 μg/mL, antibiotic 15.63 μg/mL
[17] = M[20C]-576 90.6 μg/mL, antibiotic 31.25 μg/mL
[18] = M[20C]-576 90.6 μg/mL, antibiotic 62.50 μg/mL
[19] = M[20C]-576 90.6 μg/mL, antibiotic 125 μg/mL
[20] = M[20C]-576 90.6 μg/mL, antibiotic 250 μg/mL
[21] = M[20C]-576 90.6 μg/mL, antibiotic 500 μg/mL
[22] = M[20C]-576 90.6 μg/mL, antibiotic 1000 μg/mL
[23] = M[20C]-576 90.6 μg/mL, antibiotic 2000 μg/mL
[24] = M[20C]-576 90.6 μg/mL, antibiotic 4000 μg/mL
[25] = M[20C]-576 181.3 μg/mL, antibiotic 3.91 μg/mL
[26] = M[20C]-576 181.3 μg/mL, antibiotic 7.81 μg/mL
[27] = M[20C]-576 181.3 μg/mL, antibiotic 15.63 μg/mL
[28] = M[20C]-576 181.3 μg/mL, antibiotic 31.25 μg/mL
[29] = M[20C]-576 181.3 μg/mL, antibiotic 62.50 μg/mL
[30] = M[20C]-576 181.3 μg/mL, antibiotic 125 μg/mL
[31] = M[20C]-576 181.3 μg/mL, antibiotic 250 μg/mL
[32] = M[20C]-576 181.3 μg/mL, antibiotic 500 μg/mL
[33] = M[20C]-576 181.3 μg/mL, antibiotic 1000 μg/mL
[34] = M[20C]-576 181.3 μg/mL, antibiotic 2000 μg/mL
[35] = M[20C]-576 181.3 μg/mL, antibiotic 4000 μg/mL

CN[C@H](CC(C)C)C(=O)N[C@H]1C(=O)N[C@@H](CC(N)=O)C(=O)N[C@H]2C(=O)N[C@H]3C(=O)N[C@H](C(=O)N[C@H](C(=O)O)c4cc(O)cc(O)c4-c4cc3ccc4O)[C@H](O)c3ccc(c(Cl)c3)Oc3cc2cc(c3O[C@@H]2O[C@H](CO)[C@@H](O)[C@H](O)[C@H]2O[C@H]2C[C@](C)(N)[C@H](O)[C@H](C)O2)Oc2ccc(cc2Cl)[C@H]1O [Vancomycin]
planktonic growth relative to the growth in the absence of both extract and antibiotic [1, 3]: 118% | planktonic growth relative to the growth in the absence of both extract and antibiotic [1, 4]: 117% | planktonic growth relative to the growth in the absence of both extract and antibiotic [1, 5]: 113% | planktonic growth relative to the growth in the absence of both extract and antibiotic [1, 6]: 117% | planktonic growth relative to the growth in the absence of both extract and antibiotic [1, 7]: 110% | planktonic growth relative to the growth in the absence of both extract and antibiotic [1, 8]: 102% | planktonic growth relative to the growth in the absence of both extract and antibiotic [1, 9]: 102% | planktonic growth relative to the growth in the absence of both extract and antibiotic [1, 10]: 102% | planktonic growth relative to the growth in the absence of both extract and antibiotic [1, 11]: 0% | planktonic growth relative to the growth in the absence of both extract and antibiotic [1, 12]: 0% | planktonic growth relative to the growth in the absence of both extract and antibiotic [1, 13]: 0% | planktonic growth relative to the growth in the absence of both extract and antibiotic [1, 14]: 102% | planktonic growth relative to the growth in the absence of both extract and antibiotic [1, 15]: 82% | planktonic growth relative to the growth in the absence of both extract and antibiotic [1, 16]: 88% | planktonic growth relative to the growth in the absence of both extract and antibiotic [1, 17]: 77% | planktonic growth relative to the growth in the absence of both extract and antibiotic [1, 18]: 76% | planktonic growth relative to the growth in the absence of both extract and antibiotic [1, 19]: 77% | planktonic growth relative to the growth in the absence of both extract and antibiotic [1, 20]: 74% | planktonic growth relative to the growth in the absence of both extract and antibiotic [1, 21]: 67% | planktonic growth relative to the growth in the absence of both extract and antibiotic [1, 22]: 0% | planktonic growth relative to the growth in the absence of both extract and antibiotic [1, 23]: 0% | planktonic growth relative to the growth in the absence of both extract and antibiotic [1, 24]: 0% | planktonic growth relative to the growth in the absence of both extract and antibiotic [1, 25]: 48% | planktonic growth relative to the growth in the absence of both extract and antibiotic [1, 26]: 63% | planktonic growth relative to the growth in the absence of both extract and antibiotic [1, 27]: 57% | planktonic growth relative to the growth in the absence of both extract and antibiotic [1, 28]: 60% | planktonic growth relative to the growth in the absence of both extract and antibiotic [1, 29]: 57% | planktonic growth relative to the growth in the absence of both extract and antibiotic [1, 30]: 41% | planktonic growth relative to the growth in the absence of both extract and antibiotic [1, 31]: 57% | planktonic growth relative to the growth in the absence of both extract and antibiotic [1, 32]: 32% | planktonic growth relative to the growth in the absence of both extract and antibiotic [1, 33]: −2% | planktonic growth relative to the growth in the absence of both extract and antibiotic [1, 34]: −3% | planktonic growth relative to the growth in the absence of both extract and antibiotic [1, 35]: 0% | planktonic growth relative to the growth in the absence of both extract and antibiotic [2, 3]: 135% | planktonic growth relative to the growth in the absence of both extract and antibiotic [2, 4]: 118% | planktonic growth relative to the growth in the absence of both extract and antibiotic [2, 5]: 114% | planktonic growth relative to the growth in the absence of both extract and antibiotic [2, 6]: 117% | planktonic growth relative to the growth in the absence of both extract and antibiotic [2, 7]: 115% | planktonic growth relative to the growth in the absence of both extract and antibiotic [2, 8]: 116% | planktonic growth relative to the growth in the absence of both extract and antibiotic [2, 9]: 118% | planktonic growth relative to the growth in the absence of both extract and antibiotic [2, 10]: 128% | planktonic growth relative to the growth in the absence of both extract and antibiotic [2, 11]: 117% | planktonic growth relative to the growth in the absence of both extract and antibiotic [2, 12]: 0% | planktonic growth relative to the growth in the absence of both extract and antibiotic [2, 13]: 0% | planktonic growth relative to the growth in the absence of both extract and antibiotic [2, 14]: 65% | planktonic growth relative to the growth in the absence of both extract and antibiotic [2, 15]: 66% | planktonic growth relative to the growth in the absence of both extract and antibiotic [2, 16]: 65% | planktonic growth relative to the growth in the absence of both extract and antibiotic [2, 17]: 74% | planktonic growth relative to the growth in the absence of both extract and antibiotic [2, 18]: 70% | planktonic growth relative to the growth in the absence of both extract and antibiotic [2, 19]: 67% | planktonic growth relative to the growth in the absence of both extract and antibiotic [2, 20]: 66% | planktonic growth relative to the growth in the absence of both extract and antibiotic [2, 21]: 63% | planktonic growth relative to the growth in the absence of both extract and antibiotic [2, 22]: 0% | planktonic growth relative to the growth in the absence of both extract and antibiotic [2, 23]: 0% | planktonic growth relative to the growth in the absence of both extract and antibiotic [2, 24]: 0% | planktonic growth relative to the growth in the absence of both extract and antibiotic [2, 25]: 40% | planktonic growth relative to the growth in the absence of both extract and antibiotic [2, 26]: 41% | planktonic growth relative to the growth in the absence of both extract and antibiotic [2, 27]: 53% | planktonic growth relative to the growth in the absence of both extract and antibiotic [2, 28]: 55% | planktonic growth relative to the growth in the absence of both extract and antibiotic [2, 29]: 55% | planktonic growth relative to the growth in the absence of both extract and antibiotic [2, 30]: 54% | planktonic growth relative to the growth in the absence of both extract and antibiotic [2, 31]: 46% | planktonic growth relative to the growth in the absence of both extract and antibiotic [2, 32]: 47% | planktonic growth relative to the growth in the absence of both extract and antibiotic [2, 33]: −3% | planktonic growth relative to the growth in the absence of both extract and antibiotic [2, 34]: −3% | planktonic growth relative to the growth in the absence of both extract and antibiotic [2, 35]: −2%
